Source: patent US20230295086A1, “NOVEL PSILOCIN DERIVATIVES HAVING PRODRUG PROPERTIES” (COMPASS […], priority 2020, published 2023)
Marks after values point to notes of the source that are not given here.

Key:
[1] = Kinetic solubility assay (Example 11); settings: 50 mM PB pH 7.4, target 200 μM, 24 hours shaking at room temperature, UPLC; test compound as hydrochloride
Experimental: Test and control compounds were diluted to 10 mM in DMSO and then further diluted 1 in 50 in 50 mM PB (pH 7.4) to a target concentration of 200 μM. Samples were vortexed for at least 2 minutes and then left to shake (800 rpm) at room temperature for 24 hours. Visual appearance was assessed before centrifugation and injection into a UPLC system to measure concentration. […] Each compound was tested in duplicate.

[2] = Shake flask Log D assay (Example 11); format: physicochemical; settings: 1-Octanol / 100 mM PB pH 7.4, shake flask, LC-MS/MS; test compound as hydrochloride
Experimental: Test and control compounds were diluted to 10 mM in DMSO. 2 μl of each stock solution was aliquoted into tubes in duplicate. 1-Octanol saturated phosphate buffer (PB) (pH 7.4) was prepared by adding 1-Octanol into 100 ml of 100 mM PB (7.4). PB saturated 1-Octanol was prepared by adding 10 ml of 100 mM PB (7.4) into 100 ml of 1-Octanol. 149 μl of each solution was aliquoted into the corresponding tubes. These were then mixed vigorously for 2 minutes and shaken (800 rpm) at room temperature for one hour. The appropriate volume of buffer and 1-Octanol layer samples was aliquoted and diluted, before detection using LC-MS/MS.
Log D was calculated according to the following equation: […]

[3] = Pharmacokinetics in the mouse (plasma psilocin); format: in vivo, male C57BL/6J mice; settings: IV, 0.3 mg/kg
Experimental: 27 male C57BL/6J mice weighing 22-25 g at time of purchase (Charles River UK) were group housed (3 s) in polypropylene cages. Mice were maintained on a normal phase 12 hr light-dark cycle (lights on from 07:00-19:00) with ad libitum access to standard pelleted diet (Envigo 2018) and filtered tap water. The holding room was maintained at 21±4° C. with a relative humidity of 55±15%.
Mice were weighed on the day of dosing and identified by a tail mark using a permanent marker pen. Food was not withdrawn on the day of dosing. […] The remaining animals were divided into two cohorts, with animals in the first cohort receiving a single oral dose of one of the test compounds and animals in the second cohort receiving a single intravenous dose (in a lateral tail vein) of one of the test compounds. Following treatment, animals dosed orally were bled by venesection from the lateral tail vein at 5, 15, 30, 45, 60, 120, and 240 minutes post-dosing. Animals dosed intravenously were bled by venesection from the opposite lateral tail vein at the same timepoints. […] All compounds were formulated in saline and dosed in a volume of 5 ml/kg.
25 μl of blood was collected per animal per timepoint. […] Psilocin levels within samples were determined using LC-MS/MS. All pharmacokinetic parameters were calculated manually. […]

[4] = target: T1, serotonin 2A (5-HT2A) receptor (Mus musculus, UniProt P35363); assay: Head twitch response (HTR) in mice; format: in vivo, male C57BL/6J mice; settings: oral gavage 0.3 mg/kg
T1 construct: tissue Charles River UK; host or cells: whole living male C57BL/6J mice (in vivo, oral gavage)

Micro shake flask Log D = settings: Octanol:PBS 1:9, pH 7.4, 10 μM, six replicates; novel compounds as hemifumarate
Experimental: 6 replicates of each test compound were incubated at 10 μM in a 1:9 ratio of Octanol: PBS at pH 7.4. Following a two hour incubation at room temperature shaking at 600 rpm, the incubation plate was centrifuged for 15 minutes to separate the layers and then two aliquots were removed from the PBS layer. The first was left neat and the second was diluted 10-fold to give dilute samples. Internal standards were added to both the calibration curve and the PBS incubation samples for analysis on LC MS/MS.
All 6 replicates of the neat samples were averaged to give one value for each, with the same calculation performed for the dilute sample values.

[5] = Stability of psilocin carbonates in 1% HCl; format: physicochemical; settings: 37° C., approximately 26 hours, LC-MS
Experimental: 4 mg of each test compound was diluted in 2 ml distilled water to give a solution of 2 mg/ml. 2 ml of test compound solutions were then added to 2 ml of 2% (v/v) HCl in distilled water, yielding a final HCl concentration of […] (pH 0.5). Test solutions were incubated at 37° C. with continuous stirring for approximately 26 hours. Concentrations of parent compound and psilocin were analyzed at various timepoints using LC-MS. Concentrations of both parent prodrug and psilocin liberated were expressed relative to the starting concentration of parent prodrug.

[6] = Intake study: serum concentrations after oral ingestion by two volunteers; settings: for c(Psilocin): study 2
Experimental: Two volunteers (1 M, 1 F) ingested about 1 mg of each one of P1 and M1 (Study 1) and P2 and M2 (Study 2) in gelatin capsules (exact amounts in Tables 3 and 4). One blood sample was collected prior to ingestion of the substances and served as a zero control. After ingestion samples were collected for about 8 h with increasing time intervals between sample taking (exact protocol in Tables 4 and 5). […] The obtained sera were transferred in plastic tubes and NaF (ca. 30 mg) and ascorbic acid (ca. 5 mg) were added to increase analytes stability.
200 μL serum were spiked with an internal standard solution (10 μL) and ACN (600 μL) was added to precipitate soluble proteins. Before mixing thoroughly ammonium formate (10 M, 200 μL) was added separate the aqueous from the organic phase. After centrifugation (6 min, 4,000×g), 500 μL of the organic phase were transferred into another vial and evaporated to dryness at 40° C. under a gentle stream of nitrogen. Samples were reconstituted in 100 μL mobile phase (A/B, 90/10, v/v) and used for analysis. For quantification a blank sample and a six point calibration (0.5, 1.0, 2.0, 5.0, 10, 20 ng/mL) in calf serum were prepared as described above.
The HPLC-MS system consisted of a Nexera X2 UHPLC system composed of three LC-30AD pumps, a DGU-30A3 degasser, a SIL-30AC autosampler, a CTO-10AS column oven and a CBM-20A controller (Shimadzu, Duisburg, Germany) coupled to a QTRAP 6500plus triple quadrupole linear ion trap mass spectrometer equipped with a TurbolonSpray Interface (Sciex, Darmstadt, Germany). The MS was operated in positive electrospray ionization mode. Data acquisition was performed in scheduled multiple reaction monitoring mode (detection window: 60 s) using Analyst software (version 1.7). MS parameters (declustering potential, entrance potential, collision energy, and collision cell exit potential) were optimized for all substances to obtain the best possible signal intensities (summary of the MRM parameters are given in Table 5). Ion source temperature and ion source voltage were set to 550° C. and +5500 V, respectively. Dwell time was 20 ms for every MRM transition. Curtain gas (N2) pressure was 35 psi, ion source gas 1 and 2 (compressed air) pressure were 50 and 60 psi, respectively, and collision gas (N2) pressure was set to “high.” Chromatographic separation was performed on a Kinetex® biphenyl column (100×2.1 mm, 2.6 μm particle size, Phenomenex, Aschaffenburg, Germany) with a corresponding guard column (SecurityGuard™ ULTRA Cartridges UHPLC Biphenyl for 2.1 mm ID columns, Phenomenex, Aschaffenburg, Germany). The autosampler and the column oven temperature were set to 10° C. and 40° C., respectively. The injection volume was 10 μL.

[7] = serum, oral intake of about 1 mg prodrug, mean of 2 volunteers

T1 sequence (P35363 whole entry): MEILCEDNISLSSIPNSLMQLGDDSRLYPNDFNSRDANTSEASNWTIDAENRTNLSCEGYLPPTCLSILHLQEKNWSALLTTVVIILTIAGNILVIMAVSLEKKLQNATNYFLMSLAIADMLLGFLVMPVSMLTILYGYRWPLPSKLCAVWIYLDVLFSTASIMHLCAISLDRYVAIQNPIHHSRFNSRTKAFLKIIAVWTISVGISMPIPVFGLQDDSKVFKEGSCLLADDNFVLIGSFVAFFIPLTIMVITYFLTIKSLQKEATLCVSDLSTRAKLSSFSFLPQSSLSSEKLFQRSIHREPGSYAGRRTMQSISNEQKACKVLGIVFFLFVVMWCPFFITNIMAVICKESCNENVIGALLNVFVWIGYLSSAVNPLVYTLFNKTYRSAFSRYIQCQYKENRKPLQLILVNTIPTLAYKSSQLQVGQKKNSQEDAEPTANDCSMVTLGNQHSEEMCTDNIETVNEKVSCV

## CN(C)CCc1c[nH]c2cccc(OC(=O)OCc3ccccc3)c12 [Psilocin-4-yl-benzylcarbonate, psilocin-4-yl benzyl carbonate]
[1]
  Detected concentration: 230 µM
[2]
  Mean LogD: 2.19
[3]
  Cmax (psilocin): approximately double that of psilocybin
[4]; N = 8
  Mean number of head twitches 0-15 mins: 2.63
  Mean number of head twitches 30-45 mins: 1.88
  Mean number of head twitches 45-60 mins: 1.13
  Mean number of head twitches Total 0-60 mins: 8.2
[4]; N = 8, 0.3 mg/kg
  Mean number of head twitches 15-30 mins: 4.13
[4]; N = 8, listed as Psilocin-4-yl-benylcarbonate, 0.3 mg/kg
  Mean number of head twitches 15-30 mins: of similar magnitude to that induced by psilocybin

## CN(C)CCc1c[nH]c2cccc(OC(=O)OC(C)(C)C)c12 [Psilocin-4-yl-tert-butylcarbonate, psilocin-4-yl tert-butyl carbonate]
Micro shake flask Log D
  Mean LogD: 1.50
[5]
  Degradation of parent compound / conversion to psilocin: rapid and complete chemical degradation to psilocin within approximately four hours
[6]; serum after oral ingestion of about 1 mg
  Parent prodrug itself in serum (not detected, LOD): < 0.07 ng/mL
[6]; [7]
  Cmax of psilocin: 1.13 ± 0.01 ng/mL
  Tmax of psilocin: 1.5 ± 0.933 h
  elimination constant kel of psilocin: 0.0043 min⁻¹
  elimination half life t1/2 of psilocin: 2.67 h
[6]; serum, test person A, oral P2 0.98 mg salt, 4 min, below LOQ, extrapolated
  c(Psilocin): 0.16* ng/mL
[6]; serum, test person A, oral P2 0.98 mg salt, 12 min, below LOQ, extrapolated
  c(Psilocin): 0.16* ng/mL
[6]; serum, test person A, oral P2 0.98 mg salt, 23 min, below LOQ, extrapolated
  c(Psilocin): 0.21* ng/mL
[6]; serum, test person A, oral P2 0.98 mg salt, 34 min, below LOQ, extrapolated
  c(Psilocin): 0.22* ng/mL
[6]; serum, test person A, oral P2 0.98 mg salt, 50 min
  c(Psilocin): 0.43 ng/mL
[6]; serum, test person A, oral P2 0.98 mg salt, 77 min
  c(Psilocin): 0.57 ng/mL
[6]; serum, test person A, oral P2 0.98 mg salt, 113 min
  c(Psilocin): 0.99 ng/mL
[6]; serum, test person A, oral P2 0.98 mg salt, 130 min
  c(Psilocin): 1.14 ng/mL
[6]; serum, test person A, oral P2 0.98 mg salt, 165 min
  c(Psilocin): 0.96 ng/mL
[6]; serum, test person A, oral P2 0.98 mg salt, 205 min
  c(Psilocin): 0.83 ng/mL
[6]; serum, test person A, oral P2 0.98 mg salt, 270 min
  c(Psilocin): 0.66 ng/mL
[6]; serum, test person A, oral P2 0.98 mg salt, 335 min
  c(Psilocin): 0.47 ng/mL
[6]; serum, test person A, oral P2 0.98 mg salt, 395 min
  c(Psilocin): 0.40 ng/mL
[6]; serum, test person A, oral P2 0.98 mg salt, 458 min, below LOQ, extrapolated
  c(Psilocin): 0.30* ng/mL
[6]; serum, test person B, oral P2 1.05 mg salt, 6 min, below LOQ, extrapolated
  c(Psilocin): 0.24* ng/mL
[6]; serum, test person B, oral P2 1.05 mg salt, 13 min, below LOQ, extrapolated
  c(Psilocin): 0.26* ng/mL
[6]; serum, test person B, oral P2 1.05 mg salt, 22 min
  c(Psilocin): 0.48 ng/mL
[6]; serum, test person B, oral P2 1.05 mg salt, 34 min
  c(Psilocin): 0.75 ng/mL
[6]; serum, test person B, oral P2 1.05 mg salt, 50 min
  c(Psilocin): 1.12 ng/mL
[6]; serum, test person B, oral P2 1.05 mg salt, 77 min
  c(Psilocin): 1.12 ng/mL
[6]; serum, test person B, oral P2 1.05 mg salt, 100 min
  c(Psilocin): 0.92 ng/mL
[6]; serum, test person B, oral P2 1.05 mg salt, 127 min
  c(Psilocin): 0.73 ng/mL
[6]; serum, test person B, oral P2 1.05 mg salt, 165 min
  c(Psilocin): 0.53 ng/mL
[6]; serum, test person B, oral P2 1.05 mg salt, 205 min
  c(Psilocin): 0.51 ng/mL
[6]; serum, test person B, oral P2 1.05 mg salt, 270 min
  c(Psilocin): 0.40 ng/mL
[6]; serum, test person B, oral P2 1.05 mg salt, 331 min
  c(Psilocin): 0.33 ng/mL
[6]; serum, test person B, oral P2 1.05 mg salt, 394 min, below LOQ, extrapolated
  c(Psilocin): 0.30* ng/mL
[6]; serum, test person B, oral P2 1.05 mg salt, 454 min, below LOQ, extrapolated
  c(Psilocin): 0.29* ng/mL
[4]; N = 8
  Mean number of head twitches 0-15 mins: 3
  Mean number of head twitches 15-30 mins: 2
  Mean number of head twitches 30-45 mins: 1.5
  Mean number of head twitches 45-60 mins: 0.13
  Mean number of head twitches Total 0-60 mins: 6.48
